The values below come from ChEMBL document CHEMBL5584210, “Design, synthesis and antitubercular assessment of 1, 2, 3-triazole incorporated thiazolylcarboxylate derivatives” (Bioorg Med Chem Lett, 2024).

The test system of data set [1] is Mycobacterium tuberculosis. Briefly: Antimycobacterial activity against Mycobacterium tuberculosis H37Rv by alamar blue assay. In kind it is functional.
Data set [2] can be described thus: Cytotoxicity against mouse RAW264.7 cells assessed as inhibition of cell growth at 25 ug/ml incubated for 48 hrs by MTT assay relative to control. In kind it is toxicity, cell-based. As to conditions: at 25 µg/mL.

In brackets after ≈: the same amount, converted by molar mass.

On to `CCc1cc(-c2nc(C)c(C(=O)OCc3cn(-c4cccc(C)c4)nn3)s2)ccn1`, for which the MIC in data set [1] amounted to 6.25 µg/mL (≈ 14.9 µM). Besides, the inhibition at 48 h, 25 ug/ml in data set [2] is 30.1%.
As to `CCc1cc(-c2nc(C)c(C(=O)OCc3cn(-c4ccc(C)c([N+](=O)[O-])c4)nn3)s2)ccn1`, in data set [1], the MIC worked out at 12.5 µg/mL (≈ 26.9 µM).
Turning to `CCc1cc(-c2nc(C)c(C(=O)OCc3cn(-c4ccccc4Cl)nn3)s2)ccn1`, in data set [1], the MIC came to 25 µg/mL (≈ 56.8 µM).
In data set [1], `CCc1cc(-c2nc(C)c(C(=O)OCc3cn(-c4ccc(Br)cc4)nn3)s2)ccn1` gave a minimum inhibitory concentration (MIC) above 25 µg/mL.
On to `CCc1cc(-c2nc(C)c(C(=O)OCc3cn(-c4ccccc4OC)nn3)s2)ccn1`, for which, in data set [1], the MIC was above 25 µg/mL.
`CCCc1cc(-c2nc(C)c(C(=O)OCc3cn(-c4ccc(CC)cc4)nn3)s2)ccn1` gave an MIC in data set [1] of 1.56 µg/mL (≈ 3.49 µM). In data set [2], the inhibition at 48 h, 25 ug/ml was determined as 27.2%.
Take `CCc1cc(-c2nc(C)c(C(=O)OCc3cn(-c4cccc([N+](=O)[O-])c4)nn3)s2)ccn1`: in data set [1], the MIC is 12.5 µg/mL (≈ 27.7 µM).
On to `CCCc1cc(-c2nc(C)c(C(=O)OCc3cn(-c4ccc(C)cc4)nn3)s2)ccn1`, for which the MIC in data set [1] is above 25 µg/mL.
On to `CCc1ccc(-n2cc(COC(=O)c3sc(-c4ccnc(CC)c4)nc3C)nn2)cc1`, for which, in data set [1], inhibition of growth (MIC) required 3.12 µg/mL (≈ 7.2 µM). The inhibition at 48 h, 25 ug/ml in data set [2] is 29.2%.
In data set [1], `CCCc1cc(-c2nc(C)c(C(=O)OCc3cn(-c4cccc(Cl)c4)nn3)s2)ccn1` showed an MIC of 12.5 µg/mL (≈ 27.5 µM).
The same measure, in the same setting: to `CCc1cc(-c2nc(C)c(C(=O)OCc3cn(-c4c(C)cc(C)cc4C)nn3)s2)ccn1` belongs 25 µg/mL (≈ 55.9 µM).
With `CCCc1cc(-c2nc(C)c(C(=O)OCc3cn(-c4cccc(OC)c4)nn3)s2)ccn1`, it took 6.25 µg/mL (≈ 13.9 µM) to inhibit growth in data set [1] (MIC). Moreover, in data set [2], the inhibition at 48 h, 25 ug/ml was found to be 25.7%.
In data set [1], `CCc1cc(-c2nc(C)c(C(=O)OCc3cn(-c4ccc(OC)cc4)nn3)s2)ccn1` had a minimal inhibitory concentration (MIC) of 12.5 µg/mL (≈ 28.7 µM).
As for `CCc1cc(-c2nc(C)c(C(=O)OCc3cn(-c4ccc(C)cc4)nn3)s2)ccn1`, in data set [1], the MIC stood at 25 µg/mL (≈ 59.6 µM).
In data set [1], `CCCc1cc(-c2nc(C)c(C(=O)OCc3cn(-c4cccc([N+](=O)[O-])c4)nn3)s2)ccn1` had a minimum inhibitory concentration (MIC) above 25 µg/mL.
`CCCc1cc(-c2nc(C)c(C(=O)OCc3cn(-c4ccccc4)nn3)s2)ccn1` returned an MIC in data set [1] of 12.5 µg/mL (≈ 29.8 µM).
`CCCc1cc(-c2nc(C)c(C(=O)OCc3cn(-c4ccc(Br)cc4)nn3)s2)ccn1`: in data set [1], the minimal inhibitory concentration (MIC) amounted to 25 µg/mL (≈ 50.2 µM).
`CCc1cc(-c2nc(C)c(C(=O)OCc3cn(-c4cccc(OC)c4)nn3)s2)ccn1` registered an MIC in data set [1] of 6.25 µg/mL (≈ 14.4 µM). Besides, the inhibition at 48 h, 25 ug/ml in data set [2] came out at 26%.
In data set [1], `CCc1cc(-c2nc(C)c(C(=O)OCc3cn(-c4cccc(Cl)c4)nn3)s2)ccn1` returned a minimum inhibitory concentration (MIC) of 25 µg/mL (≈ 56.8 µM).
Take `CCc1cc(-c2nc(C)c(C(=O)OCc3cn(-c4ccc(C)cc4C)nn3)s2)ccn1`: the MIC in data set [1] came to 6.25 µg/mL (≈ 14.4 µM). Further, the inhibition at 48 h, 25 ug/ml in data set [2] amounted to 21.9%.
On to `CCc1cc(-c2nc(C)c(C(=O)OCc3cn(-c4ccccc4)nn3)s2)ccn1`, for which the minimal inhibitory concentration (MIC) in data set [1] was found to be 25 µg/mL (≈ 61.7 µM).
The same measure, in the same setting: to `CCCc1cc(-c2nc(C)c(C(=O)OCc3cn(-c4ccc(Cl)cc4)nn3)s2)ccn1` belongs above 25 µg/mL; to `CCc1cc(-c2nc(C)c(C(=O)OCc3cn(-c4ccccc4C)nn3)s2)ccn1`, 12.5 µg/mL (≈ 29.8 µM); to `CCCc1cc(-c2nc(C)c(C(=O)OCc3cn(-c4ccc(OC)cc4)nn3)s2)ccn1`, above 25 µg/mL.
The molecule `CCc1cc(-c2nc(C)c(C(=O)OCc3cn(-c4ccc(Cl)cc4)nn3)s2)ccn1` gave an MIC in data set [1] of 25 µg/mL (≈ 56.8 µM).
In data set [1], `CCc1cc(-c2nc(C)c(C(=O)OCc3cn(-c4ccccc4F)nn3)s2)ccn1` showed an MIC of 12.5 µg/mL (≈ 29.5 µM).
On the same count and under the same terms, to `CCCc1cc(-c2nc(C)c(C(=O)OCc3cn(-c4ccccc4F)nn3)s2)ccn1` belongs 25 µg/mL (≈ 57.1 µM).
With `O=C(O)c1cn(C2CC2)c2cc(N3CCNCC3)c(F)cc2c1=O` [CIPROFLOXACIN], the MIC in data set [1] was 1.56 µg/mL (≈ 4.71 µM).
`CC[C@@H](CO)NCCN[C@@H](CC)CO` [ETHAMBUTOL] gave an MIC in data set [1] of 3.12 µg/mL (≈ 15.3 µM).
